Experimental data taken from patent US10975069B2, “Sigma-2 receptor ligand drug conjugates as antitumor compounds, methods of synthesis and uses thereof” (priority 2014, dated 2021).
Where “and” joins values, the source holds several entries; their conditions need not be identical. Equal values may be shown once.

What was measured:
[1] = test system: KCKO mouse pancreatic tumors; test: Syngeneic subcutaneous KCKO pancreatic tumor model; format: in vivo, C57BL/6 mice
Text: FIG. 7 illustrates changes in mean tumor volume (in mm^3) following administration to interval of C57BL/6 mice with established, syngeneic, subcutaneous KCKO mouse pancreatic tumors over a period of 10 days for SW V-49s. Erastin, SV119, a mixture of Erastin and SV119, and a vehicle control. […] Note in FIG. 7 the decrease in tumor volume from approx. 40 mm^3 to approx. 20 mm^3 in SW V 49s-treated mice, compared to an increase from approx. 40 mm^3 to approx. 140 mm^3 for other treatments.
In these experiments, in a survival study of the mice reported in Example 9, the group which received SW V-49s survived at 100% (FIG. 8). In all other groups, the mean survival clustered at around 18 days.
(§1) Animal studies were performed according to the animal studies protocol approved by Washington University Institutional Animal Care Facility. In vivo studies with mice were performed to compare the effects of SW V-49s, SV119. Erastin, a combination of SV119 with Erastin, and vehicle. The vehicle used in the in vivo studies is a mixture of 25% cremophor and 75% H2O. C57BL/6 mice (6 weeks old. National Cancer Institute Laboratories) were injected in the right flank with 200 μL single cell suspension of KCKO cells in RPMI medium (25×10^4/10^5 cells per mouse). Mice were randomized into four groups (n=15). Treatment was started when the mean tumor diameter was ^˜5 mm. Mice received daily intra peritoneal injections with 375 nmoles in 100 μL/dose of SW V-49s and vehicle for 10 days SV119. Erastin, equimolar mix of SV119 and Erastin. Tumors were measured every other day with a digital caliper. Several mice from different treatment groups were sent to the Division of Comparative Medicine in our institution for pathologic evaluation. Blood was collected for complete blood count (CBC) and biochemical analysis (AST, ALT, BUN, total bilirubin, and Cr). Organs were examined grossly and histologically.

[2] = Toxicity study (necropsy, CBC, clinical chemistry) in tumor bearing mice; format: in vivo, C57BL/6 mice
Experimental: Six adult female mice were submitted to necropsy. The strain designation of the mice was C57BL/6. […]
as §1, with “The vehicle used in the in vivo studies is a mixture of 25% cremophor and 75% H2O.” left out, “Mice received daily intra peritoneal injections with 375 nmoles in 100 μL/dose of SW V-49s and vehicle for 10 days SV119.” left out

AsPC-1 cells = test: CELLTITER-GLO viability after pre-treatment with NAC or ZVAD; format: cell-based; conditions: Homo sapiens
Experimental: To assess the roles of these two mechanisms on the induction of cell death, the effects of pan-caspase inhibitor and antioxidant on the efficacy of SW V-49s were tested. In these experiments, AsPC-1 cells were pre-treated with 10 mM of the antioxidant N acetyl cysteine (NAC), 20 μM of pan-caspase inhibitor ZVAD, and DMSO as a control for 1 hour. Then, the 3 groups were treated with 10 μM of SW V-49s for 5 hours, after which a CELLTITER-GLO® viability assay was performed.

sigma-2 receptors = target: T1, sigma-2 receptors (Homo sapiens, UniProt Q5BJF2); test: Competitive inhibition of internalization of fluorescent sigma-2 ligand SW 120 (flow cytometry); format: cell-based; conditions: increasing concentrations of SW V-49s (0, 10, 30, 50), 30 min 37 °C, then SW120; FIG. 3
T1 construct: endogenous in cells
Experimental: In these experiments, competitive binding assays of SW V-49s with the fluorescently labeled sigma-2 ligand SW 120 of structure
AsPC-1 cells (5×10^5/well) were seeded into a 6 well plate for 24 hours before treatment. The cells were then incubated with […] of SW V-49s for 30 minutes at 37° C. Subsequently, 10 nM of fluorescently labeled sigma-2 ligand SW120 was added to the cell culture medium containing SW V-49s. After 30 minute of incubation at 37° C., cells were washed twice with phosphate buffered saline (PBS) and harvested with 0.05% trypsin EDTA (Life Technologies. Grand Island, N.Y.). Thereafter, the cells were centrifuged at 1000×g for 5 minutes and the pellets were washed twice with PBS. Internalization of SW 120 was determined by flow cytometer (FACSCalibur™, BD Biosciences, San Jose, Calif.).

[3] = Table 2, individual mouse, listed as test drug
[4] = Table 3 differential, individual mouse
[5] = Table 3 differential, individual mouse, listed as test drug
[6] = Table 4, individual mouse, listed as test drug
[7] = Table 6, individual mouse (Drug 1-3), treated 10 days
[8] = Table 7, individual mouse (Drug 1-3), treated 10 days
[9] = daily i.p. 375 nmoles for 10 days

T1 sequence (Q5BJF2 whole entry): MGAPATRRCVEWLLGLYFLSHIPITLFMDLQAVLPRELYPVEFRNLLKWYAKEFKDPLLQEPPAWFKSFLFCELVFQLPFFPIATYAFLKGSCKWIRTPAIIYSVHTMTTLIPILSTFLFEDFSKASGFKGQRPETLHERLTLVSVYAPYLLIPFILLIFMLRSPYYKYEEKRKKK

CCOc1ccccc1-n1c(CN2CCN(C(=O)COc3ccc(CNCCCCCCN4C5CCCC4CC(OC(=O)Nc4cc(C)ccc4OC)C5)cc3)CC2)nc2ccccc2c1=O.O=C(O)C(=O)O (centres unmarked) [SW V-49s]
change in tumor volume ([1]; 10 days, p<0.05, FIG. 7): significant decrease in tumor volume
effect on mean tumor volume / tumor growth ([1]; daily i.p. 375 nmoles for 10 days, FIG. 14A): capable of reducing the mean tumor volume
median survival ([1]; daily i.p. 375 nmoles for 10 days, Kaplan-Meier, FIG. 14B): 48 days
mean tumor volume at end of treatment ([1]; over a period of 10 days, from approx. 40 mm^3 at start, FIG. 7): approx. 20 mm^3
survival ([1]; survival study, FIG. 8): 100%
WBC ([2]; Table 2, individual mouse, daily i.p. over 2 weeks, listed as test drug): 5.68 10^3/μL and 3.34 10^3/μL and 4.16 10^3/μL
Platelets ([2]; Table 2, individual mouse, * mild platelet clumping, listed as test drug): 749* 10^3/μL and 885 10^3/μL and 611 10^3/μL
HGB [2, 3]: 10.7 g/dL and 10.5 g/dL and 9.8 g/dL
MCH [2, 3]: 12.3 pg and 12.5 pg and 12.8 pg
MCHC [2, 3]: 27.2% and 24.8% and 26.0%
MCV [2, 3]: 45.3 u and 50.5 u and 49.2 u
PCV [2, 3]: 39.3% and 42.4% and 37.7%
RBC [2, 3]: 8.67 10^6/μL and 8.40 10^6/μL and 7.66 10^6/μL
Bands [2, 4]: 0%
Basophils [2, 4]: 0%
Eosinophils [2, 4]: 0%
Nrbe [2, 4]: 0%
Lymphocytes [2, 5]: 96% and 78% and 87%
Monocytes [2, 5]: 2% and 4% and 0%
Neutrophils [2, 5]: 2% and 18% and 13%
ALT [2, 6]: 138 u/L and 64 u/L and 63 u/L
AST [2, 6]: 167 u/L and 147 u/L and 55 u/L
BUN [2, 6]: 19 mg/dL and 22 mg/dL and 17 mg/dL
Creatinine [2, 6]: 0.22 mg/dL and 0.21 mg/dL and 0.24 mg/dL
Glucose [2, 6]: 178 mg/dL and 310 mg/dL and 180 mg/dL
Total Protein [2, 6]: 5.1 g/dL (2×) and 5.7 g/dL
HGB [2, 7]: 9.8 g/dL and 10.7 g/dL and 10.5 g/dL
MCH [2, 7]: 12.8 pg and 12.3 pg and 12.5 pg
MCHC [2, 7]: 26.0% and 27.2% and 24.8%
MCV [2, 7]: 49.2 u and 45.3 u and 50.5 u
PCV [2, 7]: 37.7% and 39.3% and 42.4%
Platelets [2, 7]: 611 10^3/μL and 749 10^3/μL and 885 10^3/μL
RBC [2, 7]: 7.66 10^6/μL and 8.67 10^6/μL and 8.40 10^6/μL
WBC [2, 7]: 4.16 10^3/μL and 5.68 10^3/μL and 3.34 10^3/μL
ALT [2, 8]: 138 μ/L and 64 μ/L and 63 μ/L
AST [2, 8]: 167 μ/L and 147 μ/L and 55 μ/L
BUN [2, 8]: 19 mg/dL and 22 mg/dL and 17 mg/dL
Creatinine [2, 8]: 0.22 mg/dL and 0.21 mg/dL and 0.24 mg/dL
Glucose [2, 8]: 178 mg/dL and 310 mg/dL and 180 mg/dL
Total Protein [2, 8]: 5.1 g/dL (2×) and 5.7 g/dL
mice behavior and drug-related deaths [2, 9]: no gross abnormalities in the mice behavior (grooming) or any drug-related deaths were recorded
organs analyses (brain, heart, lungs, alimentary tract, kidneys, liver and pancreas), adverse drug effects [2, 9]: did not reveal any obvious signs of adverse drug effects, except a mild peritonitis
serum labs (CBC, AST, ALT, BUN, total bilirubin, and Cr) [2, 9]: unchanged
histopathologic finding in drug-treated versus control animals ([2]; daily i.p. over 2 weeks): minimal to moderate chronic peritonitis
Body weight ([2]; pre-necropsy, individual mouse, daily i.p. over 2 weeks, listed as test drug): 21 grams and 19 grams and 22 grams
differences in cell counts (CBC) versus vehicle ([2]; treated for 10 days, Table 6): not statistically significant
viability at 10 µM (AsPC-1 cells; ASPC1, 10 μM SW V-49s 5 hours after 1 hour pre-treatment with 20 μM ZVAD): 91%
viability at 10 µM (AsPC-1 cells; ASPC1, 10 μM SW V-49s 5 hours after 1 hour pre-treatment with 10 mM NAC): 63%
viability at 10 µM (AsPC-1 cells; ASPC1, 10 μM SW V-49s alone, 5 hours (DMSO pre-treatment)): 39%
blocking of SW 120 internalization (sigma-2 receptors): efficient blocking of SW 120 internalization
